According to US11066403B2, “Solid form of azetidine derivative and preparation method therefor and use thereof” (SICHUAN KELUN-BIOTECH BIOPHARMACEUTICAL CO., LTD., priority 2017, dated 2021):

Tests used:
[1] = Viscous fluidity test (bulk density, angle of repose); format: physicochemical; settings: for angle of repose: funnel method, tan α=H/R; for most apparent density (bulk density): without applying any external force
Protocol: (§1) A measuring container was filled with crystalline form B (1.97 g) of the compound of Formula (I), and the volume was determined to be 7.62 ml without applying any external force. The most apparent density (i.e., bulk density) was calculated to be 0.26 g/ml. The powder was slowly added into a funnel from above so that the material leaking from the bottom of the funnel formed a conical stack on the horizontal surface, and the diameter of the bottom of the cone (2R) and the height of the cone (H) were measured to be 3.59 cm and 1.79 cm, respectively. And the angle of repose was calculated to be 45 degrees according to the formula for calculating the angle of repose (tan α=H/R).
as §1, with “The” for “A measuring container was filled with crystalline form B (1.97 g) of the compound of Formula (I), and the volume was determined to be 7.62 ml without applying any external force. The”, “0.43” for “0.26”, “cone” for “cone (H)”, “2.91” for “3.59”, “1.46” for “1.79”

[2] = Physicochemical stability (high temperature, high humidity, light; XRPD and HPLC); settings: XRPD
hERG potassium channel = target: T1, hERG potassium channel (Homo sapiens, UniProt Q12809); test: hERG test (Predictor hERG Fluorescence Polarization Assay Kit); format: binding
T1 construct: purchased Thermo Fisher
Protocol: The effects of the crystalline forms of the compound of Formula (I) on hERG potassium channel were determined using a biochemical hERG assay kit based on fluorescence polarization technology (Predictor™ hERG Fluorescence Polarization Assay Kit, Thermo Fisher) to assess the potential of the crystalline form of the compound of Formula (I) in inducing cardiac QT interval prolongation.

[3] = Cytotoxicity (MTS) in HEK293; format: cell-based; settings: HEK293 cells, human embryonic kidney cell, 40 h incubation
Protocol: (§2) The cells were plated at a concentration of 2×10^4 cells/well and incubated for 4 h at 37° C. in a 5% CO2 incubator. The crystalline form of the compound of Formula (I) of the present invention was added, and incubation was continued for 40 h. The incubation solution was removed, and a complete medium was added (100 μl/well) to each test well and incubated in the incubator for 0.5 to 1 h. Then, MTS solution was added (10 μl/well) thereto, and incubation was continued for 4 h in the incubator. The absorbance at 450 nm was measured, and the IC50 value was calculated.

[4] = Cytotoxicity (MTS) in HK-2; format: cell-based; settings: HK-2 cells, human proximal tubular cell, 40 h incubation
Protocol: as §2

[5] = Cytotoxicity (MTS) in N2a; format: cell-based; settings: mouse, N2a neuroblastoma cells, neuroblastoma cell, 40 h incubation
Protocol: as §2

JAK3 = target: T2, JAK3 (Homo sapiens, UniProt P52333); test: JAK3 enzymatic activity inhibition assay (HTRF KinEASE-TK); format: biochemical
T2 sequence (P52333 1-1124): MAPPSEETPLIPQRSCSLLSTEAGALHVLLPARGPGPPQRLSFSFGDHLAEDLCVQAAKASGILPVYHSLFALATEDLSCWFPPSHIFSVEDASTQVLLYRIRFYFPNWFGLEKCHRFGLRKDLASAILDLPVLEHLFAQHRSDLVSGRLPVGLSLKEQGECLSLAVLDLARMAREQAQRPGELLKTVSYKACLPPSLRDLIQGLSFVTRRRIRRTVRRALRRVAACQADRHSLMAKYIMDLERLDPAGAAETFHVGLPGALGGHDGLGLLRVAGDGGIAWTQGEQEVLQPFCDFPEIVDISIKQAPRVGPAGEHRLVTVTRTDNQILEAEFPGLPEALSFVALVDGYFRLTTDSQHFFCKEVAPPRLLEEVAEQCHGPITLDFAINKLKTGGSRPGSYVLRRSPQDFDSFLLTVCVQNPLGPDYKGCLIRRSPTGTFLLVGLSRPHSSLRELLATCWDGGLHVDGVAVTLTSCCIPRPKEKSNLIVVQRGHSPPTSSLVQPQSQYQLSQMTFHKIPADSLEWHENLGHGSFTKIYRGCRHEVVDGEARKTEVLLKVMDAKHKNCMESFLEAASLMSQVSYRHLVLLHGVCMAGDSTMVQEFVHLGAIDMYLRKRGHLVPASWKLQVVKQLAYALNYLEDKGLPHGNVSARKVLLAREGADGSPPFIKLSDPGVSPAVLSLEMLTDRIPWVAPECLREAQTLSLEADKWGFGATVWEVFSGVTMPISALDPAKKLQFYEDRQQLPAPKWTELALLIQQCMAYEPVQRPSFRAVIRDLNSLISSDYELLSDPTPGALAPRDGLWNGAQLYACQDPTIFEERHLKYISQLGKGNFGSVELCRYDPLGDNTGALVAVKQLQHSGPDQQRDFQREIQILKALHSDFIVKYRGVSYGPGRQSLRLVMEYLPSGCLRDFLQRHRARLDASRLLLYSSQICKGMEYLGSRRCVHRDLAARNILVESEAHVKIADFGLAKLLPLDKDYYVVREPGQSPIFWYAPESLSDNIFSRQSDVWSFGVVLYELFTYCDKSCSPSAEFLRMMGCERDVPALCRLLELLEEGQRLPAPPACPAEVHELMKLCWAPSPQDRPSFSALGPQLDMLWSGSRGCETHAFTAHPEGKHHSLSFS
Protocol: (§3) The crystalline form of the compound of Formula (I), an enzyme, a substrate and ATP were diluted to desired concentrations with the buffer in the HTRF® KinEASE™-TK kit (Cisbio). The former three agents were added into a multiple well plate, and incubated at room temperature after being mixed homogeneously. ATP was added to initiate the kinase reaction, and incubation at room temperature was performed. The test reagent in the kit was used to terminate the reaction, and incubation was continued at room temperature. After the incubation was completed, fluorescence signals at 620 nm and 665 nm were measured using a BMG PHERAstar FS microplate reader, and the half inhibitory concentration (IC50) values were calculated.

TYK2 = TYK2 (Homo sapiens, UniProt P29597); test: TYK2 enzymatic activity inhibition assay (HTRF KinEASE-TK); format: biochemical
Protocol: as §3

[6] = test system: STAT3 phosphorylation in Hep3B cells; test: Effect on JAK/STAT signaling pathway in Hep3B cells (IL-6 induced p-STAT3, AlphaLISA); format: cell-based; settings: Homo sapiens, 0.5 h, IL-6 stimulation 30 min
Protocol: After incubating the crystalline form of the compound of Formula (I) of the present invention with Hep3B cells in a 37° C., 5% CO2 incubator for 15 min, […] IL-6 was added. Incubation was continued for 30 min, and the cells were lysed. The lysate was added to AlphaLISA SureFire Ultra p-STAT3 (Tyr705) assay kit (PerkinElmer), incubated at room temperature in dark, and the signals emitted by the receptor microbeads after energy absorption were measured, and the half inhibitory concentration (IC50) of inhibiting STAT3 phosphorylation was calculated.

[7] = test system: Collagen-Induced Arthritis (CIA) model; test: Efficacy in collagen-induced arthritis (CIA) model in rats; format: in vivo, rat; parameters: Mean pathological score, Joint inflammation (X ± SD) / Mean pathological score, Joint cartilage erosion (X ± SD) / Mean pathological score, Synovial hyperplasia/pannus (X ± SD): scale not given here; settings: for Mean pathological score, Joint cartilage erosion (X ± SD) / Mean pathological score, Joint inflammation (X ± SD) / Mean pathological score, Synovial hyperplasia/pannus (X ± SD): hind paw joints
Protocol: After female Lewis rats were immunized twice with bovine type II collagen to form a CIA model, the rats were randomly divided into 4 groups (the vehicle group, and the groups of the crystalline form of the compound of Formula (I) of the present invention (1 mg/kg, 3 mg/kg, 10 mg/kg), respectively), and unmodeled rats were taken as the normal group. The corresponding drugs were administered by gavage once a day for 14 days (D15-D28). The hind paw was scored for arthritis index during the administration (the results are shown in Table 5); and after the end of the experiment, the ankle joint was taken for pathologic analysis (the average pathological scores of the hind paw joints of the rats are shown in Table 6).

[8] = high humidity (92.5%) for 5 days
[9] = high temperature (60° C.) for 5 days
[10] = 1 mg/kg gavage once a day for 14 days
[11] = 3 mg/kg gavage once a day for 14 days
[12] = 10 mg/kg gavage once a day for 14 days

T1 sequence (Q12809 whole entry): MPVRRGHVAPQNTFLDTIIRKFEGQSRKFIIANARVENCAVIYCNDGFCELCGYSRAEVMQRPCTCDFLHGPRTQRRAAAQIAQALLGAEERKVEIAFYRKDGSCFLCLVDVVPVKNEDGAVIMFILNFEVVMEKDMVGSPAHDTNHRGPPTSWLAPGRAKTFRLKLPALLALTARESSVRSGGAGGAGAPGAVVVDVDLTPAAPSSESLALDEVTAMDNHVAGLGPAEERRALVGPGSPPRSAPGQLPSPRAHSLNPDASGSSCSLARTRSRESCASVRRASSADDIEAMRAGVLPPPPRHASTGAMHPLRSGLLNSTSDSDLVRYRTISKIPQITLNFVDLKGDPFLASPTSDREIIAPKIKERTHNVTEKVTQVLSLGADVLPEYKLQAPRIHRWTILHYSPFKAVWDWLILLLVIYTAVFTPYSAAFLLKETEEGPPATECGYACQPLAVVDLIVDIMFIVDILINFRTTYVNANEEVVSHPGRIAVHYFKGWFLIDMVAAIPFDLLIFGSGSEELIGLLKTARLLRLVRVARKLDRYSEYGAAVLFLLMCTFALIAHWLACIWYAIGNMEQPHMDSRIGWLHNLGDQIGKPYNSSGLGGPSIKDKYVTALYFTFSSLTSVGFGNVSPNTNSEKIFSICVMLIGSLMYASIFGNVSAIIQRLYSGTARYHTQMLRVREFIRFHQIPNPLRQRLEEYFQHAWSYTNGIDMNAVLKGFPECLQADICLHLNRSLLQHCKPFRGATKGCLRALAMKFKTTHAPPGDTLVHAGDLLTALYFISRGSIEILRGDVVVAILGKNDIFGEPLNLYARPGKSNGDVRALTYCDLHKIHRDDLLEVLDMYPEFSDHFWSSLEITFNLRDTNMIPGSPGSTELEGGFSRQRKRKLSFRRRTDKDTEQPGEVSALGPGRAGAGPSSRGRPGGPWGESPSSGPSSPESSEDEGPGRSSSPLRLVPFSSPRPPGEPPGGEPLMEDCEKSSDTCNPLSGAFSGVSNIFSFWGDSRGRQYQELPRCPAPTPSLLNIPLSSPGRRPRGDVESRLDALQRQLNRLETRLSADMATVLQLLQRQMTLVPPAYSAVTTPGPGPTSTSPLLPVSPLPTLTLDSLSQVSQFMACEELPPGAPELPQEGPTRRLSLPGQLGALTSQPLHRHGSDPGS
TYK2, sequence (P29597 whole entry, species assumed): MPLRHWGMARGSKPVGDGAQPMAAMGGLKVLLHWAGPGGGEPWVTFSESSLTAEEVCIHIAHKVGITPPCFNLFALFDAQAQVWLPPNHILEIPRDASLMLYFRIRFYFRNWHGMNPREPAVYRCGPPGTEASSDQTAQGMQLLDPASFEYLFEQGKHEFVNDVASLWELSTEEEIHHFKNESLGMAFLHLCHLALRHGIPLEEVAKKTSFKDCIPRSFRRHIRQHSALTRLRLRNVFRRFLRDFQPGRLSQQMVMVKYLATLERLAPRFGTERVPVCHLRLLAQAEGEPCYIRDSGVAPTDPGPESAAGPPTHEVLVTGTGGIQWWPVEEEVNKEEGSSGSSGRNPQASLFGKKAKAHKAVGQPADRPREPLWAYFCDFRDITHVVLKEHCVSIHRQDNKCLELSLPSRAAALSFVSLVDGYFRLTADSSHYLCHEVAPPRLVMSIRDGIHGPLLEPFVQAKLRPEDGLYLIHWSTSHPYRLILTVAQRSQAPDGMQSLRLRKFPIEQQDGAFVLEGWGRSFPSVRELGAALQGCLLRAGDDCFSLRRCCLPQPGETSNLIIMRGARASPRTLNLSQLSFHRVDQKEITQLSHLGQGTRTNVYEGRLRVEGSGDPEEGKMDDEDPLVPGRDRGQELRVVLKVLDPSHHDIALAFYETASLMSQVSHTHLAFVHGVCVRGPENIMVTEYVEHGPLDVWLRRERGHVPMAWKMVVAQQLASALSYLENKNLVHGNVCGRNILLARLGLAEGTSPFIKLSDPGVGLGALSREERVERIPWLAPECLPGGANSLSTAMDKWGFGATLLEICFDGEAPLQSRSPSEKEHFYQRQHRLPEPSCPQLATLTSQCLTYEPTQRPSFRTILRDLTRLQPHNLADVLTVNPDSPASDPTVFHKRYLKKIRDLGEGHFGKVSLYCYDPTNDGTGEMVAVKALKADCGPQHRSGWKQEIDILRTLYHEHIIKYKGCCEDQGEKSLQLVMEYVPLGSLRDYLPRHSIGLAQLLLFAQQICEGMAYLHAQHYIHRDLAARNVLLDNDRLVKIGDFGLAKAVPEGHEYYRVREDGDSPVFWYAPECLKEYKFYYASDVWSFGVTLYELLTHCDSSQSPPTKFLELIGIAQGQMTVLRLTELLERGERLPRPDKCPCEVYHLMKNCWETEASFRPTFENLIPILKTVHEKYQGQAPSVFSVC

Question: For `CCS(=O)(=O)N1CC(CC#N)(n2cc(-c3ccnc4[nH]ccc34)cn2)C1` [Crystalline form A, 2-(3-(4-(1H-pyrrolo[2,3-b]pyridin-4-yl)-1H-pyrazol-1-yl)-1-(ethylsulfonyl)azetidin-3-yl)acetonitrile], which particle fluidity [1] is on record?
Answer: Its particle fluidity is “good particle fluidity”.

Question: What about the angle of repose [1] of the same compound?
Answer: The angle of repose was 45 degrees.

Question: What about the “most apparent density (bulk density)” value [1] of the same compound?
Answer: The value was 0.43 g/mL.

Question: What about the “Changes in crystalline form” value [2, 8] of the same compound?
Answer: Its value is “No”.

Question: And the “Changes in crystalline form” value [2, 9]?
Answer: Its value is “No”.

Question: What about the “Changes in crystalline form” value ([2]; light condition for 5 days) of the same compound?
Answer: The value was “No”.

Question: What about the inhibition at 2 h, 30 µM (hERG potassium channel; human, probe tracer with high hERG affinity, at 30 μM, read-out: hERG inhibition rate) of the same compound?
Answer: Its inhibition at 2 h, 30 µM is less than 50%.

Question: What about the IC50 (hERG potassium channel; test concentration 3, 10 and 30 μM, 25° C., 2 h) of the same compound?
Answer: The IC50 was greater than 30 µM.

Question: And the IC50 at 40 h [3]?
Answer: The IC50 at 40 h was greater than 50 µM.

Question: What about the IC50 at 40 h [4] of the same compound?
Answer: Its IC50 at 40 h is 23.1 µM.

Question: And the IC50 at 40 h [5]?
Answer: Its IC50 at 40 h is 33.6 µM.

Question: What about the IC50 (JAK3) of the same compound?
Answer: The IC50 was 0.0161 ± 0.00155 µM.

Question: And the IC50 (TYK2)?
Answer: Its IC50 is 0.0228 ± 0.00403 µM.

Question: What about the IC50 [6] of the same compound?
Answer: The IC50 was 0.123 ± 0.0183 µM.

Question: What about the “Effect on mean pathological score of synovial hyperplasia/pannus (in words)” value ([7]; 1 mg/kg) of the same compound?
Answer: The value was “to some extent”.

Question: What about the “Effect on mean pathological scores of joint inflammation and joint cartilage erosion (in words)” value ([7]; 1 mg/kg) of the same compound?
Answer: Its value is “significantly reduce”.

Question: What about the “Mean pathological score, Joint cartilage erosion (X ± SD)” value [7, 10] of the same compound?
Answer: Its value is 5.10 ± 1.52.

Question: And the “Mean pathological score, Joint inflammation (X ± SD)” value [7, 10]?
Answer: The value was 4.00 ± 1.25.

Question: And the “Mean pathological score, Synovial hyperplasia/pannus (X ± SD)” value [7, 10]?
Answer: Its value is 6.90 ± 0.99.

Question: And the “Effect on mean pathological scores of joint inflammation, joint cartilage erosion and synovial hyperplasia/pannus (in words)” value ([7]; 3 mg/kg)?
Answer: The value was “significantly reduce”.

Question: And the “Mean pathological score, Joint cartilage erosion (X ± SD)” value [7, 11]?
Answer: Its value is 2.20 ± 1.93.

Question: And the “Mean pathological score, Joint inflammation (X ± SD)” value [7, 11]?
Answer: The value was 2.60 ± 1.90.

Question: What about the “Mean pathological score, Synovial hyperplasia/pannus (X ± SD)” value [7, 11] of the same compound?
Answer: Its value is 4.80 ± 1.40.

Question: And the “Effect on mean pathological scores of joint inflammation, joint cartilage erosion and synovial hyperplasia/pannus (in words)” value ([7]; 10 mg/kg)?
Answer: Its value is “significantly reduce”.

Question: What about the “Mean pathological score, Joint cartilage erosion (X ± SD)” value [7, 12] of the same compound?
Answer: Its value is 0.10 ± 0.32.

Question: And the “Mean pathological score, Joint inflammation (X ± SD)” value [7, 12]?
Answer: The value was 0.30 ± 0.67.

Question: What about the “Mean pathological score, Synovial hyperplasia/pannus (X ± SD)” value [7, 12] of the same compound?
Answer: Its value is 2.20 ± 0.42.

Question: Which results are given for `CCS(=O)(=O)N1CC(CC#N)(n2cc(-c3ccnc4[nH]ccc34)cn2)C1` [Crystalline form B, 2-(3-(4-(1H-pyrrolo[2,3-b]pyridin-4-yl)-1H-pyrazol-1-yl)-1-(ethylsulfonyl)azetidin-3-yl)acetonitrile]?
Answer: particle fluidity [1]: good particle fluidity; angle of repose [1]: 45 degrees; most apparent density (bulk density) [1]: 0.26 g/mL; Changes in crystalline form [2, 8]: No; Changes in crystalline form [2, 9]: No; Changes in crystalline form ([2]; light condition for 5 days): No
